{
  "source": "patent US20150125457A1",
  "about": "“BONE REPAIR PROMOTER” (DAIICHI SANKYO COMPANY, LIMITED, priority 2012, published 2015)",
  "assay_type_in_all_cases": "in vivo",
  "key": {"Sox9 gene": {"test_system": "Sox9 gene", "test": "Rat closed femur fracture model, cartilage-related marker gene expression (real-time PCR)", "settings": "0.5 mg/kg/day continuous s.c. (osmotic pump) for one week; 7 days after fracture; normalized to ubiquitin C", "procedure": "In accordance with the method of Example 2, a rat closed fracture model was prepared. For an animal in a Sham group, a pin only was inserted into the femur, and a bone fracture was not prepared. An administration solution of CNP derivative A was prepared so as to be a dosage corresponding to 0.5 mg/kg/day, and then loaded into an osmotic pump (model 2001, Alzet). The osmotic pump was buried under the skin of the neck back of the animal, and continuous subcutaneous administration was performed for one week. Vehicle was continuously subcutaneously administered to the control group. 7 days after the preparation of the bone fracture, the animal was subjected to isoflurane inhalation anesthesia, retained in a supine position to open the abdomen, and then bled for the euthanasia. The left femur was resected, and immersed into RNAlater (Life Technologies Corporation). The diaphysis or part of the callus was cut out from the femur that had been refrigerated in RNAlater for one day or more. To the cut-out diaphysis or part of the callus, QIAzol (QIAGEN) was added, and the resultant was crushed with tungsten beads. […] The gene expression level was measured by a real-time PCR method using TaqMan Gene Expression Master Mix (Life Technologies Corporation). The measured value was standardized by the gene expression level of ubiquitin-C. […]"}, "type X collagen gene": {"test_system": "type X collagen gene", "test": "Rat closed femur fracture model, cartilage-related marker gene expression (real-time PCR)", "settings": "7 days after fracture", "procedure": "In accordance with the method of Example 2, a rat closed fracture model was prepared. For an animal in a Sham group, a pin only was inserted into the femur, and a bone fracture was not prepared. An administration solution of CNP derivative A was prepared so as to be a dosage corresponding to 0.5 mg/kg/day, and then loaded into an osmotic pump (model 2001, Alzet). The osmotic pump was buried under the skin of the neck back of the animal, and continuous subcutaneous administration was performed for one week. Vehicle was continuously subcutaneously administered to the control group. 7 days after the preparation of the bone fracture, the animal was subjected to isoflurane inhalation anesthesia, retained in a supine position to open the abdomen, and then bled for the euthanasia. The left femur was resected, and immersed into RNAlater (Life Technologies Corporation). The diaphysis or part of the callus was cut out from the femur that had been refrigerated in RNAlater for one day or more. To the cut-out diaphysis or part of the callus, QIAzol (QIAGEN) was added, and the resultant was crushed with tungsten beads. The total RNA was extracted by an RNeasy Mini Kit (QIAGEN), and 1st strand cDNA was synthesized by a SuperScript VILO cDNA Synthesis Kit (Life Technologies Corporation). The gene expression level was measured by a real-time PCR method using TaqMan Gene Expression Master Mix (Life Technologies Corporation). The measured value was standardized by the gene expression level of ubiquitin-C. The standardization was performed for 12 cases in each group.\n(§1) In accordance with the method of Example 2, a rat closed fracture model was prepared. An administration solution was prepared so as to be a dosage corresponding to 0.5 mg/kg/day by using various NPR-B agonists (CNP derivative A, hCNP-53 (SEQ ID NO: 2), CNP derivative C (CNP-36, amino acid Nos. 18 to 53 of SEQ ID NO: 2), and CNP derivative D (Pro-Gly-CNP37, SEQ ID NO: 15)), and then loaded into an osmotic pump (Model 2001, Alzet). The osmotic pump was buried under the skin of the neck back of the animal retained in a supine position, and continuous subcutaneous administration was performed for one week. Vehicle was administered to the control group. 7 days after the preparation of the bone fracture, the animal was subjected to isoflurane inhalation anesthesia, retained in a supine position to open the abdomen, and then subjected to blood collection from the abdominal aorta. EDTA Na was added to the blood, then the EDTA Na-added blood was centrifuged and the plasma separated, and the resultant was cryopreserved. At a later date, the cGMP level in the plasma was measured by a RIA method using a kit (YSI-7702, YAMASA CORPORATION). After blood collection, the animal was bled for the euthanasia, and then the left femur was resected. Each maximum diameter of the sagittal plane and the coronal plane in the callus was measured, and the average value was used as a callus diameter. In accordance with the method of Example 3, the type X collagen gene expression level in the callus was measured. The measurement was performed for 12 cases in each group."}, "[1]": {"test_system": "rat closed femur fracture model", "test": "Rat closed femur fracture model, callus diameter", "settings": "0.5 mg/kg/day continuous s.c. for one week; 7 days after fracture; versus vehicle group; FIG. 5B", "procedure": "as §1"}},
  "data": [
    {"substance": "CNP derivative A: CNP (1-22) Ghrelin (12-28, E17D): SEQ ID NO: 13; SEQ ID NO: 157 of US 2010-305031 (GLSKGCFGLKLDRIGSMSGLGCVQQRKDSKKPPAKLQPR; Chimeric CNP J (SEQ ID NO157) of US2010-305031 and WO2009/142307, and CNP derivative A of current invention.)", "values": [
      {"measurement": "Gene expression level of Sox9 in fractured left femur", "setting": "Sox9 gene", "result": "this high level was maintained"},
      {"measurement": "Gene expression of type X collagen in fractured left femur", "setting": "type X collagen gene; Example 3: 0.5 mg/kg/day continuous s.c. (osmotic pump) for one week, normalized to ubiquitin C", "result": "significantly suppressed"},
      {"measurement": "Gene expression level of type X collagen in the callus", "setting": "type X collagen gene; Example 4: 0.5 mg/kg/day continuous s.c. for one week, versus vehicle group, FIG. 5C", "result": "suppressed"},
      {"measurement": "Maximum diameter of the callus generated in the left femur", "setting": "[1]", "result": "significantly larger"}
    ]}
  ]
}
